Assays:
[1] = Excitation and emission spectrum (fluorescence); format: physicochemical
Source text: FIG. 1. Excitation and emission spectrum of pyrenyloxy sulfonamide (Compound 4a)
FIG. 2. Excitation and emission spectrum of Cascade Blue
FIG. 3. Excitation and emission spectrum of fluorescein
(§1) The core structure of the improved, reactive, hydrophilic, uncharged fluorophores is a new class of pyrenyloxy sulfonamide compounds. […] The novelty of this invention involves the substantial improvement of the properties of Cascade Blue, a currently available blue-fluorescent dye. The high polarity of anionic sulfonate of Cascade Blue results in the membrane-impermeability which can only be used extracellularly, a major disadvantage for many desirable applications. […] And the high aqueous solubility of the pyrenyloxy sulfonamide is useful for biological and physiological application, allowing staining the cell surface which is negatively charged, and even more useful to enter the cell for intracellular detection. In addition, the Stokes shift of Cascade Blue is undesirably small (ca. 20 nm, FIG. 2). […] The Stokes shift of the compounds of this invention is a much more practical 44 nm (FIG. 1), a significant improvement in its utility as a tracer for biological applications. The molar extinction coefficient of the structure of the invention is slightly higher (3.1×10^4 cm^−1 M^−1 at λ423 nm) than that of Cascade Blue (2.9×10^4 cm^−1 M^−1 at λ410 nm), an additional advantage for increased sensitivity. Photostability of the dye (compound 6 in FIG. 6) was tested under the light exposure. The scans were overlaid up to 60 mins with 15 min interval. […] This resistance to photobleaching greatly enhances the utility of the dye for quantitative measurements and permits extended illumination time.
Obvious is the spectra region shorter than 500 nm which is particularly valuable to get away from interference where green fluorescent protein is present or, to carry out the applications requiring multiple dyes such as flow cytometry, DNA sequencing and multiparameter microscopy. […] This special feature increases the sensitivity of the fluorescence techniques where the emission signal can be maximized against the low background.

[2] = Molar extinction coefficient; format: physicochemical; settings: at λ410 nm
Source text: as §1, with “sensitivity.” for “sensitivity. Photostability of the dye (compound 6 in FIG. 6) was tested under the light exposure. The scans were overlaid up to 60 mins with 15 min interval.”

Row | Molecule | Stokes shift [1] | peak of emission [1] [nm] | peak of excitation [1] [nm] | molar extinction coefficient [2] [cm⁻¹ M⁻¹]
1 | O=S(=O)(c1cc(OCCCO)c2ccc3c(S(=O)(=O)N4CCOCC4)cc(S(=O)(=O)N4CCOCC4)c4ccc1c2c34)N1CCOCC1 [Compound 4a, 8-(3′-hydroxypropyloxy)pyren-tris(morpholino)-1,3,6-trisulfonamide] | ca. 44 nm | 465 | 421 | –
2 | Cascade Blue [reference compound] | ca. 20 nm | – | – | 29000
